Measured values from patent US20040116420A1 (priority 2001, published 2004).
pIC50: −log10 of the molar value.

Legend:
HSV-1 protease = target: T1, HSV-1 protease (Human herpesvirus 1, UniProt P10210); assay: Enzymatic assay for HSV-1 protease (assembly) inhibitor, fluorescence polarization; format: biochemical; conditions: read-out: HSV-1 Enzyme inhibition IC50
T1 construct: 6xHis (N); made in house; host or cells: baculovirus expression system
Procedure, shortened: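 His6-tagged HSV-1 UL26 protease, baculovirus-expressed, preincubated 30 min at RT with compound in 1 M citrate/phosphate buffer pH 7.4 with 20% glycerol and 2 mM TCEP. A biotin-HTYLQA*SERFRIK-DTAF substrate was then cleaved for 60 min at RT, stopped with avidin, and read by fluorescence polarization versus no-inhibitor control.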

HSV-1 = assay: Antiviral activity, HSV-1 in Vero cells, plaque method; format: cell-based; conditions: Human alphaherpesvirus 1, 20 hours, 90% inhibition of plaque formation
Procedure, shortened: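 HSV-1 (50,000 pfu in 2% FBS-DMEM) was added to Vero cells and removed, then the compound was applied in 2% FBS-DMEM for 20 h at 37° C, 5% CO2. After a freeze-thaw, virus yield in the medium was titred by plaque assay. EC90 is the concentration giving 90% plaque reduction versus the compound-free control.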

Vero cells = assay: Cytotoxicity, Vero cells, Alamar Blue; format: cell-based; conditions: 25 μM, 20 hours
Procedure, shortened: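 Overnight-seeded Vero cells were exposed to 25 μM compound in 2% FBS-DMEM for 20 h at 37 °C, 5% CO2. Alamar Blue was then added for about 6 h. The absorbance ratio relative to compound-free control gave the living-cell ratio.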

Human plasma stability = format: in vitro ADME
Experimental: An Assay Method for Human Plasma Stability Human plasma was thawed, 200 μl each thereof was placed in each cell of a 96-well plate immediately thereafter, and 4 μl of solution of each test compound in 1 mM DMF was added thereto. A microplate reader for fluorescence absorption was used to assay changes in fluorescence, and half life was determined based on the changes.

T1 sequence (P10210 1-247): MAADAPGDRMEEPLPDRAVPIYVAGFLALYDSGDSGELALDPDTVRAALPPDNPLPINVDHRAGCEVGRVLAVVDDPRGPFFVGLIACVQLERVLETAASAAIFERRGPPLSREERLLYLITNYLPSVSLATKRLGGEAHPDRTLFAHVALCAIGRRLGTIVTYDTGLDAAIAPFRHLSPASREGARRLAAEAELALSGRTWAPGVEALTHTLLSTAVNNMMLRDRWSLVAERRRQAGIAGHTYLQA

Structure (SMILES)	pIC50 (HSV-1 protease)	EC90 (HSV-1)	half-life at 19.6 μM (Human plasma stability)	Cell viability (% of control) (Vero cells)
Cc1c(NC(=O)OC(C)(C)C)ccc2nc(N[C@@H](C)C(=O)N(C)Cc3ccccn3)oc(=O)c12 [Compound No.58, {5-Methyl-2-[1S-(methyl-pyridin-2-ylmethyl-carbamoyl)-ethylamino]-4-oxo-4H-benzo[d][1,3]oxazin-6-yl}-carbamic acid tert-butyl ester]	5.77	10.8 µM	8.85 h	105.0%
Cc1c(NC(=O)c2ccc([N+](=O)[O-])cc2)ccc2nc(NC(C)(C)C(=O)N(C)CCc3ccccn3)oc(=O)c12 [Compound No.142, N-(5-Methyl-2-{1-methyl-1-[methyl-(2-pyridin-2-yl-ethyl)-carbamoyl]-ethylamino}-4-oxo-4H-benzo[d][1,3]oxazin-6-yl)-4-nitro-benzamide]	5.89	10.4 µM	–	61.0%
Cc1c(NC(=O)OC(C)(C)C)ccc2nc(N(C)[C@@H](Cc3ccccc3)C(=O)N(C)CCc3ccccn3)oc(=O)c12 [Compound No.83, [5-Methyl-2-(methyl-{1S-[methyl-(2-pyridin-2-yl-ethyl)carbamoyl]-2-phenyl-ethyl}-amino)-4-oxo-4H-benzo[d][1,3]oxazin-6-yl]-carbamic acid tert-butyl ester]	5.59	11.5 µM	–	66.6%
Cc1c(NC(=O)OC(C)(C)C)ccc2nc(N[C@@H](CC3CCCCC3)C(=O)N(C)CCc3ccccn3)oc(=O)c12 [Compound No.47, (2-{2-cyclohexyl-1S-[methyl-(2-pyridin-2-yl-ethyl)-carbamoyl]-ethylamino}-5-methyl-4-oxo-4H-benzo[d][1,3]oxazin-6-yl)-carbamic acid tert-butyl ester]	5.54	< 3.2 µM	–	36.7%
Cc1c(NC(=O)OC(C)(C)C)ccc2nc(NC(C)(C)C(=O)NCc3ccncc3)oc(=O)c12 [Compound No.34, (5-Methyl-2-{1-methyl-1-[(pyridin-4-ylmethyl)-carbamoyl]-ethylamino}-4-oxo-4H-benzo[d][1,3]oxazin-6-yl)-carbamic acid tert-butyl ester]	5.80	> 25 µM	–	102.0%
Cc1c(NC(=O)c2cccc(C(F)(F)F)c2)ccc2nc(NC(C)(C)C(=O)N(C)CCc3ccccn3)oc(=O)c12 [Compound No.145, N-(5-Methyl-2-{1-methyl-1-[methyl-(2-pyridin-2-yl-ethyl)-carbamoyl]-ethylamino}-4-oxo-4H-benzo[d][1,3]oxazin-6-yl)-3-trifluoromethyl-benzamide]	5.89	6 µM	–	19.7%
Cc1c(NC(=O)OC(C)(C)C)ccc2nc(N3C[C@H](OCc4ccccc4)C[C@H]3C(=O)N(C)CCc3ccccn3)oc(=O)c12 [Compound No.114, (2-{4R-Benzyloxy-2S-[methyl-(2-pyridin-2-yl-ethyl)-carbamoyl]-pyrrolidin-1-yl}-5-methyl-4-oxo-4H-benzo[d][1,3]oxazin-6-yl)-carbamic acid tert-butyl ester]	< 5.00	5.9 µM	–	76.5%
Cc1c(NC(=O)OC(C)(C)C)ccc2nc(N3Cc4ccccc4C[C@H]3C(=O)NCc3cccnc3)oc(=O)c12 [Compound No.95, (5-Methyl-4-oxo-2-{3S-[(pyridin-3-ylmethyl)-carbamoyl]-3,4-dihydro-1H-isoquinolin-2-yl}-4H-benzo[d][1,3]oxazin-6-yl)-carbamic acid tert-butyl ester]	5.36	12.3 µM	–	44.0%
Cc1c(NC(=O)OC(C)(C)C)ccc2nc(N[C@@H](CCc3ccccc3)C(=O)N(C)CCc3ccncc3)oc(=O)c12 [Compound No.56, (5-Methyl-2-{1S-[methyl-(2-pyridin-4-yl-ethyl)-carbamoyl]-3-phenyl-propylamino}-4-oxo-4H-benzo[d][1,3]oxazin-6-yl)-carbamic acid tert-butyl ester]	5.49	3.7 µM	–	77.9%
Cc1c(NC(=O)OC(C)(C)C)ccc2nc(N(C)[C@@H](C)C(=O)N(C)CCc3ccncc3)oc(=O)c12 [Compound No.78, [5-Methyl-2-(methyl-{1S-[methyl-(2-pyridin-4-yl-ethyl)-carbamoyl]-ethyl}-amino)-4-oxo-4H-benzo[d][1,3]oxazin-6-yl]-carbamic acid tert-butyl ester]	5.85	> 12.5 µM	–	90.7%

Now those with a higher pIC50 (HSV-1 protease), led by results:

pIC50 (HSV-1 protease)	EC90 (HSV-1)	half-life at 19.6 μM (Human plasma stability)	Structure (SMILES)	Cell viability (% of control) (Vero cells)
6.52	6.2 µM	6.2 h	Cc1c(NC(=O)OC(C)(C)C)ccc2nc(NC(C)(C)C(=O)N(C)CCc3cccnc3)oc(=O)c12 [Compound No.19, (5-Methyl-2-{1-methyl-1-[methyl-(2-pyridin-3-yl-ethyl)-carbamoyl]-ethylamino}-4-oxo-4H-benzo[d][1,3]oxazin-6-yl)-carbamic Acid Tert-Butyl Ester]	106.0%
6.30	5.9 µM	1.47 h	Cc1c(NC(=O)OC(C)(C)C)ccc2nc(N[C@@H](Cc3ccccc3)C(=O)NCc3ccccn3)oc(=O)c12 [Compound No.20, (5-Methyl-4-oxo-{2-2-phenyl-1S-[(pyridin-2-ylmethyl)-carbamoyl]-ethylamino}-4H-benzo[d][1,3]oxazin-6-yl)-carbamic Acid Tert-Butyl Ester]	101.0%
5.96	10.1 µM	5.13 h	Cc1c(NC(=O)OC(C)(C)C)ccc2nc(NC(C)(C)C(=O)N(C)Cc3ccccn3)oc(=O)c12 [Compound No.59, {5-Methyl-2-[1-methyl-1-(methyl-pyridin-2-ylmethyl-carbamoyl)-ethylamino]-4-oxo-4H-benzo[d][1,3]oxazin-6-yl}-carbamic acid tert-butyl ester]	106.0%
6.40	6.1 µM	0.45 h	COc1ccc(CC(Nc2nc3ccc(NC(=O)OC(C)(C)C)c(C)c3c(=O)o2)C(=O)NCc2ccccn2)cc1 (stereo not drawn) [compound 230, (2-{2-(4-Methoxy-phenyl)-1-[(pyridin-2-ylmethyl)-carbamoyl]-ethylamino}-5-methyl-4-oxo-4H-benzo[d][1,3]oxazin-6-yl)-carbamic acid tert-butyl ester, reference compound]	–
5.92	10 µM	14.9 h	Cc1c(NC(=O)OC(C)(C)C)ccc2nc(NC3(C(=O)N(C)Cc4cccnc4)CCCCC3)oc(=O)c12 [Compound No.120, {5-Methyl-2-[1-(methyl-pyridin-3-ylmethyl-carbamoyl)-cyclohexylamino]-4-oxo-4H-benzo[d][1,3]oxazin-6-yl}-carbamic acid tert-butyl ester]	–
6.15	< 3.2 µM	9.92 h	Cc1c(NC(=O)OC(C)(C)C)ccc2nc(N[C@@H](CCc3ccccc3)C(=O)N(C)Cc3ccccn3)oc(=O)c12 [Compound No.23, {5-Methyl-2-[1S-(methyl-pyridin-2-ylmethyl-carbamoyl)-3-phenyl-propylamino]-4-oxo-4H-benzo[d][1,3]oxazin-6-yl}-carbamic Acid Tert-Butyl Ester]	52.0%
6.70	7.6 µM	3.02 h	Cc1c(NC(=O)OC(C)(C)C)ccc2nc(N[C@@H](C)C(=O)N(C)CCc3cccnc3)oc(=O)c12 [Compound No.65, (5-Methyl-2-{1S-[methyl-(2-pyridin-3-yl-ethyl)-carbamoyl]-ethylamino}-4-oxo-4H-benzo[d][1,3]oxazin-6-yl)-carbamic acid tert-butyl ester]	104.0%
6.05	< 3.2 µM	–	Cc1c(NC(=O)OC(C)(C)C)ccc2nc(N[C@@H](CCc3ccccc3)C(=O)N(C)CCc3cccnc3)oc(=O)c12 [Compound No.70, (5-Methyl-2-{1S-[methyl-(2-pyridin-3-yl-ethyl)-carbamoyl]-3-phenyl-propylamino}-4-oxo-4H-benzo[d][1,3]oxazin-6-yl)-carbamic acid tert-butyl ester]	48.0%
6.22	> 12.5 µM	–	COc1cc(OC)cc(C(=O)Nc2ccc3nc(NC(C)(C)C(=O)N(C)CCc4ccccn4)oc(=O)c3c2C)c1 [compound 191, 3,5-Dimethoxy-N-(5-methyl-2-{1-methyl-1-[methyl-(2-pyridin-2-yl-ethyl)-carbamoyl]-ethylamino}-4-oxo-4H-benzo[d][1,3]oxazin-6-yl)-benzamide]	89.1%
